# Measurements as given in US10723741B1, “DNA polymerase IIIC inhibitors and use thereof” (Acurx Pharmaceuticals, LLC, priority 2018, dated 2020).
# Where two headings read alike, the source gives them in different places.
# What was measured:
# Assay type in all cases: cell-based
# [1] = system: Staphylococcus aureus NRS384 (MRSA); assay: Broth microdilution MIC, S. aureus NRS384 (MRSA); set-up: MIC NRS 384 (MRSA): unit not given here; details: broth microdilution, 37° C., 20 hours; for MIC: Staphylococcus aureus
# Outline: (§1)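 Two-fold dilutions from 64 to 0.0625 μg/ml final, 1% DMSO, were inoculated at ~5.0×10^5 cfu/ml in the strain's test medium and kept 20 h at 37 °C in ambient atmosphere. Colonies were grown on MHA, with S. pneumoniae on blood agar under 5% CO2.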
# [2] = system: Staphylococcus aureus ATCC 29213 (MSSA); assay: Broth microdilution MIC, S. aureus ATCC 29213 (MSSA); details: broth microdilution, 37° C., 20 hours, read-out: MIC S. aureus ATCC 29213 (MSSA)
# Outline: as §1
# [3] = system: Enterococcus faecalis ATCC 29212; assay: Broth microdilution MIC, E. faecalis ATCC 29212; details: ATCC29212, broth microdilution, 37° C., 20 hours, read-out: MIC E. faecalis ATCC 29212
# Outline: as §1
# [4] = system: Enterococcus faecium ATCC 700221 (VRE); assay: Broth microdilution MIC, E. faecium ATCC 700221 (VRE); set-up: MIC E. faecium ATCC 700221 (VRE): unit: ug/mL; details: broth microdilution, 37° C., 20 hours; for MIC: Enterococcus faecium
# Outline: as §1
# [5] = system: Streptococcus pneumoniae ATCC 49619; assay: Broth microdilution MIC, S. pneumoniae ATCC 49619; details: ATCC49619, broth microdilution, 37° C., 20 hours, read-out: MIC S. pneumoniae ATCC 49619
# Outline: as §1
# [6] = system: Bacillus subtilis ATCC 6633; assay: Broth microdilution MIC, B. subtilis ATCC 6633; details: ATCC6633, broth microdilution, 37° C., 20 hours, read-out: MIC B. subtilis ATCC 6633
# Outline: as §1
# [7] = system: Escherichia coli ATCC 25922; assay: Broth microdilution MIC, E. coli ATCC 25922 (MHIIB w & w/o 4 mM EDTA); details: broth microdilution, 37° C., 20 hours; for MIC: Escherichia coli, ATCC25922, without EDTA, read-out: MIC E. coli ATCC 25922; for MIC E. coli ATCC 25922 + 4 mM EDTA: with 4 mM EDTA
# Outline: as §1
# [8] = read-out: MIC E. faecium ATCC 700221 (VRE)
MIC ([1]; read-out: MIC NRS 384 (MRSA)) [µg/mL],MIC [2] [µg/mL],MIC [3] [µg/mL],"MIC [4, 8] [µg/mL]",MIC [5] [µg/mL],MIC [6] [µg/mL],MIC [7] [µg/mL],MIC E. coli ATCC 25922 + 4 mM EDTA [7] [µg/mL],"MIC ([1]; MHIIB, read-out: MIC against S. aureus NRS 384 (MRSA)) [µg/mL]","MIC ([4]; MHIIB, read-out: MIC against E. faecium ATCC 700221 (VRE)) [µg/mL]",MIC NRS 384 (MRSA) [1],MIC E. faecium ATCC 700221 (VRE) [4],"MIC ([1]; S. aureus NRS 384, read-out: MIC NRS 384 (MRSA)) [µg/mL]",Compound
8,8,8,2,4,4,> 64,>64,,,,,,"O=c1[nH]c(NCc2ccc(Cl)c(Cl)c2)nc2cnn(CCN3CCS(=O)(=O)CC3)c12 [Compound 59, 5-((3,4-Dichlorobenzyl)amino)-1-(2-(1,1-dioxidothiomorpholino)ethyl)-1H-pyrazolo[4,3-d]pyrimidin-7(6H)-one]"
1,1,> 64,1,8,0.5,> 64,>64,≤ 1,≤ 1,,,,"O=c1[nH]c(NCc2ccc(Cl)c(Cl)c2)nc2cnn(CC3CCC3)c12 [Compound 134, 1-(Cyclobutylmethyl)-5-((3,4-dichlorobenzyl)amino)-1H-pyrazolo[4,3-d]pyrimidin-7(6H)-one]"
> 64,> 64,> 64,32,4,4,> 64,>64,,,,,,"O=c1[nH]c(NCc2ccc(Cl)c(Cl)c2)nc2cn(-c3ncccn3)nc12 [Compound 140, 5-((3,4-Dichlorobenzyl)amino)-2-(pyrimidin-2-yl)-2H-pyrazolo[4,3-d]pyrimidin-7(6H)-one]"
16,16,4,4,8,4,> 64,8,,,,,,"CC(C)(C)OC(=O)N1CCC(CN2CCC(n3ncc4nc(NCc5ccc(Cl)c(Cl)c5)[nH]c(=O)c43)CC2)CC1 [Compound 248, tert-Butyl 4-((4-(5-((3,4-dichlorobenzyl)amino)-7-oxo-6,7-dihydro-1H-pyrazolo[4,3-d]pyrimidin-1-yl)piperidin-1-yl)methyl)piperidine-1-carboxylate2,2,2-trifluoroacetate]"
,4,8,,4,1,> 64,>64,,,4/4,2/2,,"Cl.O=c1[nH]c(NCc2ccc(Cl)c(Cl)c2)nc2cnn(Cc3cnccn3)c12 [Compound 112, 5-((3,4-Dichlorobenzyl)amino)-1-(pyrazin-2-ylmethyl)-1H-pyrazolo[4,3-d]pyrimidin-7(6H)-one hydrochloride]"
,2,2,1,2,0.5,> 64,>64,,,,,2,"O=c1[nH]c(NCc2ccc(Cl)c(Cl)c2)nc2c(F)nn(CCOCCO)c12 [Compound 302, 5-[(3,4-Dichlorophenyl)methylamino]-3-fluoro-1-[2-(2-hydroxyethoxy)ethyl]-6H-pyrazolo[4,3-d]pyrimidin-7-one]"
,4,4,,4,1,> 64,>64,,,4/4,2/2,,"N#CCOCCn1ncc2nc(NCc3ccc(Cl)c(Cl)c3)[nH]c(=O)c21 [Compound 285, 2-(2-(5-((3,4-dichlorobenzyl)amino)-7-oxo-6,7-dihydro-1H-pyrazolo[4,3-d]pyrimidin-1-yl)ethoxy)acetonitrile]"
8,8,8,4,4,2,> 64,>64,,,,,,"O=c1[nH]c(NCc2ccc(Cl)c(Cl)c2)nc2cnn(CCc3ncccn3)c12 [Compound 117, 5-((3,4-Dichlorobenzyl)amino)-1-(2-(pyrimidin-2-yl)ethyl)-1H-pyrazolo[4,3-d]pyrimidin-7(6H)-one]"
